Data reported in patent publication US6486197B1, “Substance ft-0554 and process for producing the same” (The Kitasato Institute, priority 1997, dated 2002).

How the values were obtained:
[1] = system: Mucor racemosus KF223 (IFO 4581); assay: Paper disk antimicrobial activity; type: cell-based; set-up: unit not given here; conditions: 1 mg/ml 10 μl on 6 mm paper disk, 24 hours
Candida albicans KF1 = assay: Paper disk antimicrobial activity; type: cell-based; set-up: unit not given here; conditions: 1 mg/ml 10 μl on 6 mm paper disk, 24 hours

SMILES: CCC(C)/C=C/C=C(\C)CC(C)/C=C/C=C/C1OC(=O)C(O)C2OC12C (centres unmarked) [FT-0554 substance]
- inhibition zone diameter [1]: 10
- inhibition zone diameter (Candida albicans KF1): 12
